Values of other authors as cited in PubChem BioAssay AID1259409 (Chemical Carcinogenesis Research Information System (CCRIS), 2018).

Test system: rodent chemically induced tumor inhibition, incidence and multiplicity
Test: CCRIS tumor inhibitor studies
Conditions: Route [Inhibitor]: ORAL, Species: RAT

Structure (SMILES): CCCCCCCCCCCCCCCC(=O)CC(=O)CCCCCCCCCCCCCCC
- tumour outcome (control, treated, inhibition, significance) (Carcinogen: 2,2'-DIHYDROXY-DI-N-PROPYLNITROSAMINE, 53609-64-6, N-ETHYL-N-HYDROXYETHYLNITROSAMINE, 13147-25-6, 3,2'-DIMETHYL-4-AMINO-, Carcinogen: 2,2'-DIHYDROXY-DI-N-PROPYLNITROSAMINE, 53609-64-6, N-ETHYL-N-HYDROXYETHYLNITROSAMINE, 13147-25-6, 3,2'-DIMETHYL-4-AMINO-, Dose [Inhibitor]: 0, 0.2% IN DIET FOR 32 WK BEGINNING 1 WK POST CARCINOGEN TREATMENT (STUDY DURATION: 36 WK), Strain/Sex: F344/MALE, Target Tissue: Type of Lesion: LARGE INTESTINE: ADENOMA, Dose [Carcinogen]: 1000 MG/KG BW DHPN TWICE, 1500 MG/KG BW EHEN TWICE, 75 MG/KG BW 3 TIMES ADMINISTERED OVER FIRST 3 WK, Promoter: NONE USED): 7/14 (50%), 7/15 (47%), 6%, not significant
- tumour outcome (control, treated, inhibition, significance) (Carcinogen: 2,2'-DIHYDROXY-DI-N-PROPYLNITROSAMINE, 53609-64-6, N-ETHYL-N-HYDROXYETHYLNITROSAMINE, 13147-25-6, 3,2'-DIMETHYL-4-AMINO-, Carcinogen: 2,2'-DIHYDROXY-DI-N-PROPYLNITROSAMINE, 53609-64-6, N-ETHYL-N-HYDROXYETHYLNITROSAMINE, 13147-25-6, 3,2'-DIMETHYL-4-AMINO-, Dose [Inhibitor]: 0, 0.2% IN DIET FOR 32 WK BEGINNING 1 WK POST CARCINOGEN TREATMENT (STUDY DURATION: 36 WK), Strain/Sex: F344/MALE, Target Tissue: Type of Lesion: LARGE INTESTINE: CARCINOMA, Dose [Carcinogen]: 1000 MG/KG BW DHPN TWICE, 1500 MG/KG BW EHEN TWICE, 75 MG/KG BW 3 TIMES ADMINISTERED OVER FIRST 3 WK, Promoter: NONE USED): 3/14 (21%), 2/15 (13%0, 38%, not significant
- tumour outcome (control, treated, inhibition, significance) (Carcinogen: 2,2'-DIHYDROXY-DI-N-PROPYLNITROSAMINE, 53609-64-6, N-ETHYL-N-HYDROXYETHYLNITROSAMINE, 13147-25-6, 3,2'-DIMETHYL-4-AMINO-, Carcinogen: 2,2'-DIHYDROXY-DI-N-PROPYLNITROSAMINE, 53609-64-6, N-ETHYL-N-HYDROXYETHYLNITROSAMINE, 13147-25-6, 3,2'-DIMETHYL-4-AMINO-, Dose [Inhibitor]: 0, 0.2% IN DIET FOR 32 WK BEGINNING 1 WK POST CARCINOGEN TREATMENT (STUDY DURATION: 36 WK), Strain/Sex: F344/MALE, Target Tissue: Type of Lesion: LIVER: HEPATOCELLULAR CARCINOMA, Dose [Carcinogen]: 1000 MG/KG BW DHPN TWICE, 1500 MG/KG BW EHEN TWICE, 75 MG/KG BW 3 TIMES ADMINISTERED OVER FIRST 3 WK, Promoter: NONE USED): 6/14 (43%), 1/15 (7%), 84%, p<0.05
- tumour outcome (control, treated, inhibition, significance) (Carcinogen: 2,2'-DIHYDROXY-DI-N-PROPYLNITROSAMINE, 53609-64-6, N-ETHYL-N-HYDROXYETHYLNITROSAMINE, 13147-25-6, 3,2'-DIMETHYL-4-AMINO-, Carcinogen: 2,2'-DIHYDROXY-DI-N-PROPYLNITROSAMINE, 53609-64-6, N-ETHYL-N-HYDROXYETHYLNITROSAMINE, 13147-25-6, 3,2'-DIMETHYL-4-AMINO-, Dose [Inhibitor]: 0, 0.2% IN DIET FOR 32 WK BEGINNING 1 WK POST CARCINOGEN TREATMENT (STUDY DURATION: 36 WK), Strain/Sex: F344/MALE, Target Tissue: Type of Lesion: LUNG: ADENOMA, Dose [Carcinogen]: 1000 MG/KG BW DHPN TWICE, 1500 MG/KG BW EHEN TWICE, 75 MG/KG BW 3 TIMES ADMINISTERED OVER FIRST 3 WK, Promoter: NONE USED): 7/14 (50%), 6/15 (40%), 20%, not significant
- tumour outcome (control, treated, inhibition, significance) (Carcinogen: 2,2'-DIHYDROXY-DI-N-PROPYLNITROSAMINE, 53609-64-6, N-ETHYL-N-HYDROXYETHYLNITROSAMINE, 13147-25-6, 3,2'-DIMETHYL-4-AMINO-, Carcinogen: 2,2'-DIHYDROXY-DI-N-PROPYLNITROSAMINE, 53609-64-6, N-ETHYL-N-HYDROXYETHYLNITROSAMINE, 13147-25-6, 3,2'-DIMETHYL-4-AMINO-, Dose [Inhibitor]: 0, 0.2% IN DIET FOR 32 WK BEGINNING 1 WK POST CARCINOGEN TREATMENT (STUDY DURATION: 36 WK), Strain/Sex: F344/MALE, Target Tissue: Type of Lesion: LUNG: CARCINOMA, Dose [Carcinogen]: 1000 MG/KG BW DHPN TWICE, 1500 MG/KG BW EHEN TWICE, 75 MG/KG BW 3 TIMES ADMINISTERED OVER FIRST 3 WK, Promoter: NONE USED): 1/14 (7%), 3/15 (20%, -186%, not significant
- tumour outcome (control, treated, inhibition, significance) (Carcinogen: 2,2'-DIHYDROXY-DI-N-PROPYLNITROSAMINE, 53609-64-6, N-ETHYL-N-HYDROXYETHYLNITROSAMINE, 13147-25-6, 3,2'-DIMETHYL-4-AMINO-, Carcinogen: 2,2'-DIHYDROXY-DI-N-PROPYLNITROSAMINE, 53609-64-6, N-ETHYL-N-HYDROXYETHYLNITROSAMINE, 13147-25-6, 3,2'-DIMETHYL-4-AMINO-, Dose [Inhibitor]: 0, 0.2% IN DIET FOR 32 WK BEGINNING 1 WK POST CARCINOGEN TREATMENT (STUDY DURATION: 36 WK), Strain/Sex: F344/MALE, Target Tissue: Type of Lesion: THYROID GLAND: ADENOMA, Dose [Carcinogen]: 1000 MG/KG BW DHPN TWICE, 1500 MG/KG BW EHEN TWICE, 75 MG/KG BW 3 TIMES ADMINISTERED OVER FIRST 3 WK, Promoter: NONE USED): 3/14 (21%), 3/15 (20%), 5%, not significant
- tumour outcome (control, treated, inhibition, significance) (Carcinogen: 2,2'-DIHYDROXY-DI-N-PROPYLNITROSAMINE, 53609-64-6, N-ETHYL-N-HYDROXYETHYLNITROSAMINE, 13147-25-6, 3,2'-DIMETHYL-4-AMINO-, Carcinogen: 2,2'-DIHYDROXY-DI-N-PROPYLNITROSAMINE, 53609-64-6, N-ETHYL-N-HYDROXYETHYLNITROSAMINE, 13147-25-6, 3,2'-DIMETHYL-4-AMINO-, Dose [Inhibitor]: 0, 0.2% IN DIET FOR 32 WK BEGINNING 1 WK POST CARCINOGEN TREATMENT (STUDY DURATION: 36 WK), Strain/Sex: F344/MALE, Target Tissue: Type of Lesion: URINARY BLADDER: CARCINOMA, Dose [Carcinogen]: 1000 MG/KG BW DHPN TWICE, 1500 MG/KG BW EHEN TWICE, 75 MG/KG BW 3 TIMES ADMINISTERED OVER FIRST 3 WK, Promoter: NONE USED): 1/14 (7%), 1/15 (7%), 0%, not significant
- outcome (Carcinogen: 2,2'-DIHYDROXY-DI-N-PROPYLNITROSAMINE, 53609-64-6, N-ETHYL-N-HYDROXYETHYLNITROSAMINE, 13147-25-6, 3,2'-DIMETHYL-4-AMINO-, Carcinogen: 2,2'-DIHYDROXY-DI-N-PROPYLNITROSAMINE, 53609-64-6, N-ETHYL-N-HYDROXYETHYLNITROSAMINE, 13147-25-6, 3,2'-DIMETHYL-4-AMINO-, Dose [Inhibitor]: 0, 0.2% IN DIET FOR 32 WK BEGINNING 1 WK POST CARCINOGEN TREATMENT (STUDY DURATION: 36 WK), Strain/Sex: F344/MALE, Target Tissue: Type of Lesion: URINARY BLADDER: PAPILLOMA, Dose [Carcinogen]: 1000 MG/KG BW DHPN TWICE, 1500 MG/KG BW EHEN TWICE, 75 MG/KG BW ADMINISTERED OVER FIRST 3 WK, Promoter: NONE USED): 0/14 (0%), 3/15 (20%), -100%, not significant
- tumour outcome (control, treated, inhibition, significance) (Carcinogen: 2,2'-DIHYDROXY-N-PROPYLNITROSAMINE, 53609-64-6, N-ETHYL-N-HYDROXYETHYL- NITROSAMINE, 13147-25-6, 3,2'-DIMETHYL-4-AMI, Carcinogen: 2,2'-DIHYDROXY-N-PROPYLNITROSAMINE, 53609-64-6, N-ETHYL-N-HYDROXYETHYL- NITROSAMINE, 13147-25-6, 3,2'-DIMETHYL-4-AMI, Dose [Inhibitor]: 0, 0.2% IN DIET BEGINNING 1 WK POST LAST CARCINOGEN DOSE AND CONTINUING FOR 32 WK (STUDY DURATION: 36 WK), Strain/Sex: F344/MALE, Target Tissue: Type of Lesion: LUNG: ADENOMA, Dose [Carcinogen]: 1000 MG/KG IP DHPN 2X , 1500 MG/KG GAV EHEN 2X AND 75 MG/KG SC DMAB 3X GIVEN OVER THE INITIAL 3 WK PERIOD AT 3-4 D INTER, Promoter: NONE USED): 7/14 (50%), 6/15 (40%), 20%, not calculated
- tumour outcome (control, treated, inhibition, significance) (Carcinogen: 2-AMINO-1-METHYL-6-PHENYLIMIDAZO[4,5-B]PYRIDINE [105650-23-5], Dose [Inhibitor]: 0.1% IN DIET FOR 54 WK (STUDY DURATION: 54 WK), Strain/Sex: F344/DUCRJ/FEMALE, Target Tissue: Type of Lesion: COLON: ADENOMA OR ADENOCARCINOMA, Dose [Carcinogen]: 0.02% IN DIET FOR 54 WK (STUDY DURATION: 54 WK), Promoter: NONE): 3/20 (15%), 3/20 (15%), 0%, not significant
- tumour outcome (control, treated, inhibition, significance) (Carcinogen: 2-AMINO-1-METHYL-6-PHENYLIMIDAZO[4,5-B]PYRIDINE [105650-23-5], Dose [Inhibitor]: 0.1% IN DIET FOR 54 WK (STUDY DURATION: 54 WK), Strain/Sex: F344/DUCRJ/FEMALE, Target Tissue: Type of Lesion: MAMMARY GLAND: ADENOMA OR ADENOCARCINOMA, Dose [Carcinogen]: 0.02% IN DIET FOR 54 WK (STUDY DURATION: 54 WK), Promoter: NONE): 8/20 (40%), 3/20 (15%), 63%, not significant
